Data as given in PubChem BioAssay (NCI).
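Assay format: 96-well plates, 48-hour exposure. GI50 = concentration required for 50% inhibition of growth. The concentration for full growth arrest is given as TGI.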

How the values were obtained:
Test in all cases: growth of human tumour cells (NCI), 48 h
CAKI-1 renal = system: CAKI-1 renal
NCI-H522 lung = system: NCI-H522 lung
COLO 205 colon = system: COLO 205 colon
BT-549 breast = system: BT-549 breast
T-47D breast = system: T-47D breast
HOP-92 NSCLC = system: HOP-92 NSCLC
SK-MEL-28 melanoma = system: SK-MEL-28 melanoma
UACC-257 melanoma = system: UACC-257 melanoma
SNB-75 CNS = system: SNB-75 CNS
SR leukemia = system: SR leukemia

CCCSc1ccc2[nH]c(N3C(=O)/C(=C/c4ccc(SC)cc4)N=C3c3ccccc3)cc2c1
TGI (CAKI-1 renal): > 50 µM
TGI (NCI-H522 lung): > 50 µM
TGI (COLO 205 colon): > 43.2 µM
TGI (BT-549 breast): > 50 µM
TGI (T-47D breast): > 50 µM
TGI (HOP-92 NSCLC): > 50 µM
TGI (SK-MEL-28 melanoma): > 50 µM
TGI (UACC-257 melanoma): > 50 µM
TGI (SNB-75 CNS): > 50 µM

Cc1ccc(C)n2c1nc1ccccc12
TGI (COLO 205 colon): > 100 µM
TGI (BT-549 breast): > 100 µM
TGI (SR leukemia): > 100 µM
TGI (T-47D breast): > 100 µM
TGI (HOP-92 NSCLC): > 100 µM
TGI (SK-MEL-28 melanoma): > 100 µM
TGI (UACC-257 melanoma): > 100 µM
TGI (SNB-75 CNS): > 100 µM

Fc1ccc2c3c([nH]c2c1)CCN(Cc1ccccc1)C3
TGI (COLO 205 colon): 39.4 µM
TGI (SR leukemia): 40.7 µM
TGI (T-47D breast): 47.3 µM
TGI (HOP-92 NSCLC): 18.7 µM
TGI (SK-MEL-28 melanoma): 30.3 µM
TGI (UACC-257 melanoma): 30.6 µM
TGI (SNB-75 CNS): 32.9 µM

C=C(C(=O)OC)[C@@H]1C[C@@H](OC(C)=O)C2=C[C@H](C[C@@]3(C)O[C@@H]3C3=CC(C)=C(O3)[C@H]1OC(C)=O)OC2=O
TGI (CAKI-1 renal): 21.2 µM
TGI (NCI-H522 lung): 5.83 µM
TGI (COLO 205 colon): 25.8 µM
TGI (BT-549 breast): 31.3 µM
TGI (SR leukemia): 37.6 µM
TGI (T-47D breast): 33.8 µM
TGI (SK-MEL-28 melanoma): 33.2 µM
TGI (UACC-257 melanoma): 44.3 µM
TGI (SNB-75 CNS): > 100 µM

COc1cc2c(c(OC)c1OC)-c1ccc(SC)c(=O)cc1[C@@H](O)CC2
TGI (CAKI-1 renal): > 100 µM
GI50 (NCI-H522 lung): 0.0116 µM
GI50 (BT-549 breast): 98.4 µM
GI50 (SR leukemia): 0.0667 µM
GI50 (T-47D breast): > 100 µM
TGI (T-47D breast): > 100 µM
GI50 (HOP-92 NSCLC): > 100 µM
TGI (HOP-92 NSCLC): > 100 µM
GI50 (SK-MEL-28 melanoma): > 100 µM
TGI (SK-MEL-28 melanoma): > 100 µM
TGI (UACC-257 melanoma): > 100 µM
TGI (SNB-75 CNS): > 100 µM

CCCCc1ccc(Nc2nc(OC)c3ncn(C4CC(O)C(CO)O4)c3n2)cc1 (centres undefined)
TGI (CAKI-1 renal): 3.49 µM
TGI (NCI-H522 lung): 3.83 µM
TGI (COLO 205 colon): 28.4 µM
TGI (BT-549 breast): 38.1 µM
TGI (T-47D breast): 43.1 µM
TGI (HOP-92 NSCLC): 5.03 µM
TGI (UACC-257 melanoma): 34.6 µM
TGI (SNB-75 CNS): 36.1 µM

CCOP(=O)(OCC)C(NC(=O)C(C(F)(F)F)C(F)(F)F)c1ccccc1 (centres undefined)
TGI (CAKI-1 renal): > 100 µM
TGI (COLO 205 colon): > 100 µM
TGI (SR leukemia): > 100 µM
TGI (T-47D breast): > 100 µM
TGI (HOP-92 NSCLC): > 100 µM
TGI (SK-MEL-28 melanoma): > 100 µM
TGI (UACC-257 melanoma): > 100 µM
TGI (SNB-75 CNS): > 100 µM

Cc1cccc2sc(-c3ccc(O)cc3)nc12
TGI (CAKI-1 renal): 30.5 µM
TGI (NCI-H522 lung): 31.7 µM
TGI (COLO 205 colon): 28.1 µM
TGI (BT-549 breast): 25.2 µM
TGI (SR leukemia): 47.3 µM
TGI (SK-MEL-28 melanoma): 33.4 µM
TGI (UACC-257 melanoma): 33.1 µM
TGI (SNB-75 CNS): 26.2 µM

CC(C)(Cl)C(Br)CCC(Br)(CCl)C(Cl)CBr (centres undefined)
TGI (CAKI-1 renal): > 10 µM
TGI (NCI-H522 lung): > 10 µM
TGI (COLO 205 colon): > 10 µM
TGI (SR leukemia): > 10 µM
TGI (T-47D breast): > 10 µM
TGI (HOP-92 NSCLC): > 10 µM
TGI (SK-MEL-28 melanoma): > 10 µM
TGI (UACC-257 melanoma): > 10 µM
TGI (SNB-75 CNS): > 10 µM

O=C(NNC(=S)NC1CCCCC1)C12CC3CC(CC(C3)C1)C2
TGI (CAKI-1 renal): > 100 µM
TGI (NCI-H522 lung): > 100 µM
TGI (COLO 205 colon): > 100 µM
TGI (BT-549 breast): > 100 µM
TGI (SR leukemia): > 100 µM
TGI (T-47D breast): > 100 µM
TGI (SK-MEL-28 melanoma): > 100 µM
TGI (UACC-257 melanoma): > 100 µM
TGI (SNB-75 CNS): > 100 µM

CC(C)C1NC(=O)CC(c2ccccc2)N(N=O)C1c1ccccc1 (centres undefined)
TGI (CAKI-1 renal): > 100 µM
TGI (NCI-H522 lung): > 100 µM
TGI (COLO 205 colon): > 100 µM
TGI (HOP-92 NSCLC): > 100 µM
TGI (SK-MEL-28 melanoma): > 100 µM
TGI (UACC-257 melanoma): > 100 µM
TGI (SNB-75 CNS): > 100 µM

N[C@@H]1CCN(c2c(F)cc3c(=O)c(C(=O)O)cn4c3c2Oc2cc3c(ccc5ccccc53)cc2-4)C1
TGI (CAKI-1 renal): > 77.5 µM
TGI (NCI-H522 lung): 31.6 µM
TGI (COLO 205 colon): > 100 µM
TGI (BT-549 breast): > 100 µM
TGI (T-47D breast): 31.3 µM
TGI (HOP-92 NSCLC): 7.56 µM
TGI (SK-MEL-28 melanoma): > 93.2 µM
TGI (SNB-75 CNS): > 100 µM

O=C1NN(Cc2ccccc2)C(=O)N2CCC[C@@H]12
TGI (CAKI-1 renal): > 100 µM
TGI (COLO 205 colon): > 100 µM
TGI (T-47D breast): > 100 µM
TGI (HOP-92 NSCLC): > 100 µM
TGI (SK-MEL-28 melanoma): > 100 µM
TGI (UACC-257 melanoma): > 100 µM

COc1cc(C2(c3ncc[nH]3)SSSCC2O)ccc1O (centres undefined)
TGI (CAKI-1 renal): > 100 µM
TGI (NCI-H522 lung): 90.6 µM
TGI (COLO 205 colon): > 59.8 µM
TGI (HOP-92 NSCLC): 58.3 µM
TGI (SK-MEL-28 melanoma): > 100 µM
TGI (UACC-257 melanoma): 28.5 µM
TGI (SNB-75 CNS): > 100 µM

S=c1ncc2c([nH]1)C1c3ccccc3C2c2ccccc21
TGI (NCI-H522 lung): > 100 µM
TGI (COLO 205 colon): > 100 µM
TGI (SR leukemia): > 100 µM
TGI (SK-MEL-28 melanoma): > 100 µM
TGI (SNB-75 CNS): 77.2 µM

O=Cc1cc(C(=O)OCc2ccccc2)n(S(=O)(=O)c2ccccc2)c1
TGI (CAKI-1 renal): 55.2 µM
TGI (NCI-H522 lung): > 100 µM
TGI (COLO 205 colon): 55.1 µM
TGI (BT-549 breast): 33.9 µM
TGI (SR leukemia): > 100 µM
TGI (T-47D breast): > 100 µM
TGI (SK-MEL-28 melanoma): 30.2 µM
TGI (UACC-257 melanoma): 64 µM
TGI (SNB-75 CNS): 82.1 µM

CC(=O)NC(NCCN)(c1ccccc1)c1ccccc1
TGI (COLO 205 colon): > 100 µM
TGI (SR leukemia): > 100 µM
TGI (HOP-92 NSCLC): > 100 µM
TGI (SK-MEL-28 melanoma): > 100 µM
TGI (UACC-257 melanoma): > 100 µM
TGI (SNB-75 CNS): > 100 µM

O=C1CC(CC(=O)c2ccc(Br)cc2)C(=O)/C1=C(/O)c1ccc(Br)cc1 (centres undefined)
TGI (CAKI-1 renal): > 100 µM
TGI (NCI-H522 lung): > 100 µM
TGI (COLO 205 colon): > 100 µM
TGI (SR leukemia): > 100 µM
TGI (T-47D breast): > 100 µM
TGI (HOP-92 NSCLC): > 100 µM
TGI (SK-MEL-28 melanoma): > 100 µM
TGI (UACC-257 melanoma): > 100 µM

CCOC(=O)c1c(NC(=S)Nc2ccc(Cl)cc2)sc2c1CCN(C)C2
TGI (CAKI-1 renal): > 100 µM
TGI (COLO 205 colon): > 100 µM
TGI (BT-549 breast): > 100 µM
TGI (T-47D breast): > 100 µM
TGI (UACC-257 melanoma): > 100 µM

COc1cc(OC)cc(-c2cc(=O)c3cc4c(cc3[nH]2)OCO4)c1
TGI (CAKI-1 renal): > 100 µM
TGI (NCI-H522 lung): 0.593 µM
TGI (COLO 205 colon): 0.471 µM
TGI (SR leukemia): 9.54 µM
TGI (HOP-92 NSCLC): 21.1 µM
TGI (SK-MEL-28 melanoma): > 71.7 µM
TGI (UACC-257 melanoma): > 100 µM
TGI (SNB-75 CNS): 43.7 µM

COc1c(C(=O)NCCN(CCNC(=O)c2cccc(-c3cccc(C(=O)N(C)C)c3OC)c2OC)CCNC(=O)c2cccc(-c3cccc(C(=O)N(C)C)c3OC)c2OC)cccc1-c1cccc(C(=O)N(C)C)c1OC
TGI (CAKI-1 renal): > 100 µM
TGI (NCI-H522 lung): 43.5 µM
TGI (COLO 205 colon): 48.6 µM
TGI (SR leukemia): 71.5 µM
TGI (T-47D breast): > 100 µM
TGI (HOP-92 NSCLC): 46.2 µM
TGI (SK-MEL-28 melanoma): 41.5 µM
TGI (UACC-257 melanoma): 75.5 µM
TGI (SNB-75 CNS): 83.8 µM

CC(=O)OCC1OC(n2c3c(c(-c4ccc(Cl)cc4)c(C#N)c2=S)CCCC3)C(OC(C)=O)C(OC(C)=O)C1OC(C)=O (centres undefined)
TGI (NCI-H522 lung): > 100 µM
TGI (COLO 205 colon): > 100 µM
TGI (SR leukemia): > 100 µM
TGI (T-47D breast): > 100 µM
TGI (HOP-92 NSCLC): 40.4 µM
TGI (SK-MEL-28 melanoma): 94.6 µM
TGI (UACC-257 melanoma): > 100 µM
TGI (SNB-75 CNS): 79.6 µM

C/C=C1\CN2CCc3c([nH]c4ccccc34)C2CC1CCO (centres undefined)
TGI (NCI-H522 lung): > 100 µM
TGI (COLO 205 colon): > 100 µM
TGI (SR leukemia): > 100 µM
TGI (HOP-92 NSCLC): > 100 µM
TGI (SK-MEL-28 melanoma): > 100 µM
TGI (UACC-257 melanoma): > 100 µM
TGI (SNB-75 CNS): > 100 µM

COc1ccc2c(c1)/C(=C\c1c(Cl)[nH]c3ccccc13)C(=O)N2
TGI (CAKI-1 renal): 27.1 µM
TGI (NCI-H522 lung): 11.5 µM
TGI (COLO 205 colon): 6.6 µM
TGI (BT-549 breast): 14.8 µM
TGI (SR leukemia): 8.25 µM
TGI (T-47D breast): > 100 µM
TGI (HOP-92 NSCLC): 12.5 µM
TGI (SK-MEL-28 melanoma): 8.05 µM
TGI (UACC-257 melanoma): 20.4 µM
